Experiments:
Assay type in all cases: in vivo
Design in all cases: key: 0 is no effect; 10 is complete control
[1] = system: duck salad (Heteranthera limosa); assay: Test B flood test
How it was run: (§1)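 Flood test on plants grown to the 2-leaf stage; treated plants kept in greenhouse twelve to sixteen days, then visually rated against controls on a 0 (no effect) to 10 (complete control) scale.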

[2] = system: smallflower flatsedge (Cyperus difformis); assay: Test B flood test
How it was run: as §1

rice (Oryza sativa) = assay: Test B flood test
How it was run: as §1

[3] = system: bamyardgrass (Echinochloa crus-galli); assay: Test B flood test
How it was run: as §1

[4] = system: momingglory (Ipomoea hederacea); assay: Test B pre-/postemergence
Text: (§2) Seeds of bedstraw (Galium aparine), blackgrass (Alopecurus myosuroides), broadleaf signalgrass (Brachiaria decumbens), cocklebur (Xanthium strumarium), corn (Zea mays), crabgrass (Digitaria sanguinalis), giant foxtail (Setaria faberii), lambsquarters (Chenopodium album), momingglory (Ipomoea hederacea), pigweed (Amaranthus retroflexus), rape (Brassica napus), soybean (Glycine max), sugar beet (Beta vulgaris), velvetleaf (Abutilon theophrasti), wheat (Triticum aestivum), wild oat (Avena fatua) and purple nutsedge (Cyperus rotundus) tubers were planted and treated preemergence with test chemicals formulated in a non-phytotoxic solvent mixture which included a surfactant.
(§3) At the same time, these crop and weed species were also treated with postemergence applications of test chemicals formulated in the same manner. Plants ranged in height from 2 to 18 cm (1- to 4-leaf stage) for postemergence treatments. Plant species in the flood test consisted of rice (Oryza sativa), smallflower flatsedge (Cyperus difformis), duck salad (Heteranthera limosa) and bamyardgrass (Echinochloa crus-galli) grown to the 2-leaf stage for testing. Treated plants and controls were maintained in a greenhouse for twelve to sixteen days, after which all species were compared to controls and visually evaluated. Plant response ratings, summarized in Table B, are based on a scale of 0 to 10 where 0 is no effect and 10 is complete control. A dash (−) response means no test result.

[5] = system: crabgrass (Digitaria sanguinalis); assay: Test B pre-/postemergence; settings: for Crabgrass plant response rating: Preemergence
Text: as §2, §3

[6] = system: giant foxtail (Setaria faberii); assay: Test B pre-/postemergence
Text: as §2, §3

wild oat (Avena fatua) = assay: Test B pre-/postemergence
Text: as §2, §3

[7] = system: blackgrass (Alopecurus myosuroides); assay: Test B pre-/postemergence; settings: for Blackgrass plant response rating: Preemergence
Text: as §2, §3

[8] = system: velvetleaf (Abutilon theophrasti); assay: Test B pre-/postemergence
Text: as §2, §3

[9] = system: bedstraw (Galium aparine); assay: Test B pre-/postemergence; settings: for Bedstraw plant response rating: Preemergence
Text: as §2, §3

[10] = system: wheat (Triticum aestivum); assay: Test B pre-/postemergence
Text: as §2, §3

[11] = system: broadleaf signalgrass (Brachiaria decumbens); assay: Test B pre-/postemergence; settings: for B. signalgrass plant response rating: Preemergence
Text: as §2, §3

soybean (Glycine max) = assay: Test B pre-/postemergence
Text: as §2, §3

[12] = system: pigweed (Amaranthus retroflexus); assay: Test B pre-/postemergence
Text: as §2, §3

[13] = system: cocklebur (Xanthium strumarium); assay: Test B pre-/postemergence; settings: for Cocklebur plant response rating: Preemergence
Text: as §2, §3

[14] = system: purple nutsedge (Cyperus rotundus); assay: Test B pre-/postemergence
Text: as §2, §3

corn (Zea mays) = assay: Test B pre-/postemergence; settings: for Corn plant response rating: Preemergence
Text: as §2, §3

[15] = system: sugar beet (Beta vulgaris); assay: Test B pre-/postemergence
Text: as §2, §3

rape (Brassica napus) = assay: Test B pre-/postemergence
Text: as §2, §3

[16] = Rate 62 g/ha, Postemergence (flood test)
[17] = Rate 125 g/ha, Postemergence, flood test
[18] = Rate 250 g/ha, Postemergence (flood test species)
[19] = Rate 125 g/ha, Postemergence section (flood test species)
[20] = Rate 250 g/ha, Postemergence (so in the source)

## Cc1cnc(-c2ccccc2F)nc1Cc1cccc(C(F)(F)F)c1 [Compound 26]
[1]; [16]
  Plant response rating, Ducksalad: 0
[1]; [17]
  Plant response rating, Ducksalad: 0
[1]; [18]
  Plant response rating, Ducksalad: 0
[2]; [16]
  Plant response rating, S. Flatsedge: 0
[2]; [19]
  S. Flatsedge plant response rating: 1
[2]; [18]
  Plant response rating, S. Flatsedge: 2
Rice (Oryza sativa); [16]
  Plant response rating, Rice: 0
Rice (Oryza sativa); [19]
  Rice plant response rating: 0
Rice (Oryza sativa); [18]
  Plant response rating, Rice: 0
[3]; [16]
  Plant response rating, Barnyardgrass: 0
[3]; [17]
  Plant response rating, Barnyardgrass: 0
[3]; [18]
  Plant response rating, Barnyardgrass: 2
[4]; Rate 62 g/ha, Postemergence
  Plant response rating, Morningglory: 3
[4]; Rate 62 g/ha, Preemergence
  Morningglory plant response rating: 0
[4]; Rate 125 g/ha, Postemergence
  Morningglory plant response rating: 3
[4]; Rate 125 g/ha, Preemergence
  Morningglory plant response rating: 0
[4]; Rate 250 g/ha, Postemergence
  Plant response rating, Morningglory: 3
[4]; [20]
  Plant response rating, Morningglory: 0
[5]; Rate 62 g/ha, Postemergence
  Plant response rating, Crabgrass: 1
[5]; Rate 62 g/ha
  Crabgrass plant response rating: 0
[5]; Rate 125 g/ha, Postemergence
  Plant response rating, Crabgrass: 1
[5]; Rate 125 g/ha
  Crabgrass plant response rating: 0
[5]; Rate 250 g/ha, Postemergence
  Plant response rating, Crabgrass: 1
[5]; [20]
  Plant response rating, Crabgrass: 1
[6]; Rate 62 g/ha, Postemergence
  Plant response rating, Giant foxtail: 1
[6]; Rate 62 g/ha, Preemergence
  Giant foxtail plant response rating: 0
[6]; Rate 125 g/ha, Postemergence
  Giant foxtail plant response rating: 1
[6]; Rate 125 g/ha, Preemergence
  Giant foxtail plant response rating: 1
[6]; Rate 250 g/ha, Postemergence
  Plant response rating, Giant foxtail: 1
[6]; [20]
  Plant response rating, Giant foxtail: 1
Wild oat (Avena fatua); Rate 62 g/ha, Postemergence
  Plant response rating, Wild oats: 0
Wild oat (Avena fatua); Rate 62 g/ha, Preemergence
  Wild oats plant response rating: 0
Wild oat (Avena fatua); Rate 125 g/ha, Postemergence
  Wild oats plant response rating: 0
Wild oat (Avena fatua); Rate 125 g/ha, Preemergence
  Plant response rating, Wild oats: 0
Wild oat (Avena fatua); Rate 250 g/ha, Postemergence
  Plant response rating, Wild oats: 0
Wild oat (Avena fatua); [20]
  Plant response rating, Wild oats: 0
[7]; Rate 62 g/ha, Postemergence
  Plant response rating, Blackgrass: 0
[7]; Rate 62 g/ha
  Blackgrass plant response rating: 0
[7]; Rate 125 g/ha, Postemergence
  Plant response rating, Blackgrass: 1
[7]; Rate 125 g/ha
  Blackgrass plant response rating: 0
[7]; Rate 250 g/ha, Postemergence
  Plant response rating, Blackgrass: 1
[7]; [20]
  Plant response rating, Blackgrass: 0
[8]; Rate 62 g/ha, Postemergence
  Plant response rating, Velvetleaf: 1
[8]; Rate 62 g/ha, Preemergence
  Velvetleaf plant response rating: 0
[8]; Rate 125 g/ha, Postemergence
  Velvetleaf plant response rating: 1
[8]; Rate 125 g/ha, Preemergence
  Plant response rating, Velvetleaf: 0
[8]; Rate 250 g/ha, Postemergence
  Plant response rating, Velvetleaf: 2
[8]; [20]
  Plant response rating, Velvetleaf: 0
[9]; Rate 62 g/ha, Postemergence
  Plant response rating, Bedstraw: 1
[9]; Rate 62 g/ha
  Bedstraw plant response rating: 0
[9]; Rate 125 g/ha, Postemergence
  Plant response rating, Bedstraw: 3
[9]; Rate 125 g/ha
  Bedstraw plant response rating: 0
[9]; Rate 250 g/ha, Postemergence
  Plant response rating, Bedstraw: 6
[9]; [20]
  Plant response rating, Bedstraw: 0
[10]; Rate 62 g/ha, Postemergence
  Plant response rating, Wheat: 0
[10]; Rate 62 g/ha, Preemergence
  Wheat plant response rating: 0
[10]; Rate 125 g/ha, Postemergence
  Wheat plant response rating: 0
[10]; Rate 125 g/ha, Preemergence
  Plant response rating, Wheat: 0
[10]; Rate 250 g/ha, Postemergence
  Plant response rating, Wheat: 0
[10]; [20]
  Plant response rating, Wheat: 0
[11]; Rate 62 g/ha, Postemergence
  Plant response rating, B. signalgrass: 1
[11]; Rate 62 g/ha
  B. signalgrass plant response rating: 0
[11]; Rate 125 g/ha, Postemergence
  Plant response rating, B. signalgrass: 1
[11]; Rate 125 g/ha
  B. signalgrass plant response rating: 0
[11]; Rate 250 g/ha, Postemergence
  Plant response rating, B. signalgrass: 2
[11]; Rate 250 g/ha, Postemergence as printed in head r139 (second section for compounds 26-50)
  Plant response rating, B. signalgrass: 1
Soybean (Glycine max); Rate 62 g/ha, Postemergence
  Plant response rating, Soybean: 3
Soybean (Glycine max); Rate 62 g/ha, Preemergence
  Soybean plant response rating: 0
Soybean (Glycine max); Rate 125 g/ha, Postemergence
  Soybean plant response rating: 3
Soybean (Glycine max); Rate 125 g/ha, Preemergence
  Plant response rating, Soybean: 0
Soybean (Glycine max); Rate 250 g/ha, Postemergence
  Plant response rating, Soybean: 5
Soybean (Glycine max); [20]
  Plant response rating, Soybean: 0
[12]; Rate 62 g/ha, Postemergence
  Plant response rating, Redroot pigweed: 6
[12]; Rate 62 g/ha, Preemergence
  Redroot pigweed plant response rating: 0
[12]; Rate 125 g/ha, Postemergence
  Redroot pigweed plant response rating: 6
[12]; Rate 125 g/ha, Preemergence
  Redroot pigweed plant response rating: 0
[12]; Rate 250 g/ha, Postemergence
  Plant response rating, Redroot pigweed: 8
[12]; [20]
  Plant response rating, Redroot pigweed: 4
[13]; Rate 62 g/ha, Postemergence
  Plant response rating, Cocklebur: 2
[13]; Rate 62 g/ha
  Cocklebur plant response rating: 0
[13]; Rate 125 g/ha, Postemergence
  Plant response rating, Cocklebur: 2
[13]; Rate 125 g/ha
  Cocklebur plant response rating: 0
[13]; Rate 250 g/ha, Postemergence
  Plant response rating, Cocklebur: 3
[13]; [20]
  Plant response rating, Cocklebur: 0
[14]; Rate 62 g/ha, Postemergence
  Plant response rating, Nutsedge: 0
[14]; Rate 62 g/ha, Preemergence
  Nutsedge plant response rating: 0
[14]; Rate 125 g/ha, Postemergence
  Nutsedge plant response rating: 0
[14]; Rate 125 g/ha, Preemergence
  Nutsedge plant response rating: 0
Corn (Zea mays); Rate 62 g/ha, Postemergence
  Plant response rating, Corn: 1
Corn (Zea mays); Rate 62 g/ha
  Corn plant response rating: 0
Corn (Zea mays); Rate 125 g/ha, Postemergence
  Plant response rating, Corn: 1
Corn (Zea mays); Rate 125 g/ha
  Corn plant response rating: 0
Corn (Zea mays); Rate 250 g/ha, Postemergence
  Plant response rating, Corn: 1
Corn (Zea mays); [20]
  Plant response rating, Corn: 0
[15]; Rate 62 g/ha, Postemergence
  Plant response rating, Sugarbeets: 3
[15]; Rate 62 g/ha, Preemergence
  Sugarbeets plant response rating: 0
[15]; Rate 125 g/ha, Postemergence
  Sugarbeets plant response rating: 8
[15]; Rate 125 g/ha, Preemergence
  Plant response rating, Sugarbeets: 0
[15]; Rate 250 g/ha, Postemergence
  Plant response rating, Sugarbeets: 8
[15]; [20]
  Plant response rating, Sugarbeets: 0
Rape (Brassica napus); Rate 62 g/ha, Postemergence
  Plant response rating, Rape: 3
Rape (Brassica napus); Rate 62 g/ha, Preemergence
  Rape plant response rating: 0
Rape (Brassica napus); Rate 125 g/ha, Postemergence
  Rape plant response rating: 6
Rape (Brassica napus); Rate 125 g/ha, Preemergence
  Rape plant response rating: 0
Rape (Brassica napus); Rate 250 g/ha, Postemergence
  Plant response rating, Rape: 6
Rape (Brassica napus); [20]
  Plant response rating, Rape: 0
